Assay results from US7879823B2, “Topical anti-cancer compositions and methods of use thereof” (Johnson & Johnson Consumer Companies, priority 1999, dated 2011).

Tested on: Skin Tumors in SKH-1 Mice Previously Treated with Ultraviolet B Light
Test: Development of skin tumors in high-risk SKH-1 mice previously treated with UVB, topical application
Assay type: in vivo
Settings: for Effect on tumor growth / tumor progression (tumor volume per mouse), in words: daily topical treatment, 21 weeks of the treatment phase, relative to control; for Percent of mice with tumors / Tumor volume per mouse / Tumor volume per tumor / Tumors per mouse: topical once a day 5 days per week
From the text: Co. (Byran, Ohio). […] Controls include vehicle alone and an unrelated protein (BSA). […] Louis, Mo.). Acetone was from Fisher Scientific (Springfield, N.J.).

## Cn1c(=O)c2c(ncn2C)n(C)c1=O [Caffeine, caffeine]
  Effect on tumor growth / tumor progression (tumor volume per mouse), in words: marked delay in tumor progression
Following topical treatment
  Number of tumors per mouse, in words: reduced
  Percent of tumor-bearing mice, in words: reduced
  Tumor volume per tumor, in words: reduced
Week 0
  Percent of mice with tumors: 0
  Tumor volume per mouse: 0 mm^3
  Tumor volume per tumor: 0 mm^3
  Tumors per mouse: 0
Week 6
  Percent of mice with tumors: 16.7%
  Tumor volume per mouse: 0.2 ± 0.1 mm^3
  Tumor volume per tumor: 1.3 ± 0.7 mm^3
  Tumors per mouse: 0.2 ± 0.1
Week 9
  Tumor volume per mouse: 0.7 ± 0.5 mm^3
  Tumor volume per tumor: 3.4 ± 2.2 mm^3
  Tumors per mouse: 0.2 ± 0.1
Week 12
  Percent of mice with tumors: 50.0%
  Tumor volume per mouse: 4.0 ± 1.9 mm^3
  Tumor volume per tumor: 3.2 ± 0.8 mm^3
  Tumors per mouse: 1.3 ± 0.4
Week 15
  Percent of mice with tumors: 56.7%
  Tumor volume per mouse: 6.7 ± 2.2 mm^3
  Tumor volume per tumor: 3.2 ± 0.6 mm^3
  Tumors per mouse: 2.1 ± 0.5
Week 18
  Percent of mice with tumors: 80.0%
  Tumor volume per mouse: 22.1 ± 6.2 mm^3
  Tumor volume per tumor: 6.2 ± 1.3 mm^3
  Tumors per mouse: 3.6 ± 0.6
Week 21
  Percent of mice with tumors: 76.7%
  Tumor volume per mouse: 21.5 ± 6.0 mm^3
  Tumor volume per tumor: 5.3 ± 1.0 mm^3
  Tumors per mouse: 4.0 ± 0.7

## BSA in liposomes: bovine serum albumin (0.8 mg) in 100 ul liposomes; unrelated protein control
Week 0
  Percent of mice with tumors: 0
  Tumor volume per mouse: 0 mm^3
  Tumor volume per tumor: 0 mm^3
  Tumors per mouse: 0
Week 6
  Percent of mice with tumors: 20.0%
  Tumor volume per mouse: 0.6 ± 0.5 mm^3
  Tumor volume per tumor: 2.5 ± 1.9 mm^3
  Tumors per mouse: 2.0 ± 0.1
Week 9
  Percent of mice with tumors: 50.0%
  Tumor volume per mouse: 2.9 ± 1.4 mm^3
  Tumor volume per tumor: 2.7 ± 1.2 mm^3
  Tumors per mouse: 1.1 ± 0.3
Week 12
  Percent of mice with tumors: 80.0%
  Tumor volume per mouse: 9.1 ± 3.1 mm^3
  Tumor volume per tumor: 3.5 ± 1.0 mm^3
  Tumors per mouse: 2.6 ± 0.6
Week 15
  Percent of mice with tumors: 90.0%
  Tumor volume per mouse: 21.4 ± 6.6 mm^3
  Tumor volume per tumor: 4.0 ± 0.7 mm^3
  Tumors per mouse: 5.3 ± 0.8
Week 18
  Percent of mice with tumors: 90.0%
  Tumor volume per mouse: 41.1 ± 9.7 mm^3
  Tumor volume per tumor: 6.3 ± 1.0 mm^3
  Tumors per mouse: 6.5 ± 0.9
Week 21
  Percent of mice with tumors: 90.0%
  Tumor volume per mouse: 44.7 ± 11.6 mm^3
  Tumor volume per tumor: 6.3 ± 1.0 mm^3
  Tumors per mouse: 7.1 ± 0.8

B1: BBI: Bowman-Birk protease inhibitor (BBI; 0.8 mg; T97770, Sigma) in 100 ul liposomes (protein, UniProt P01055 40-110, looked up)
Bowman-Birk type proteinase …: DDESSKPCCDQCACTKSNPPQCRCSDMRLNSCHSACKSCICALSYPAQCFCVDITDFCYEPCKPSEDDKEN
modifications: in liposomes
notes: 0.8 mg; T97770, Sigma) in 100 ul liposomes
Week 0
  Percent of mice with tumors: 0
  Tumor volume per mouse: 0 mm^3
  Tumor volume per tumor: 0 mm^3
  Tumors per mouse: 0
Week 6
  Percent of mice with tumors: 30.0%
  Tumor volume per mouse: 0.3 ± 0.1 mm^3
  Tumor volume per tumor: 0.9 ± 0.3 mm^3
  Tumors per mouse: 0.4 ± 0.1
Week 9
  Percent of mice with tumors: 27.6%
  Tumor volume per mouse: 1.0 ± 0.7 mm^3
  Tumor volume per tumor: 1.7 ± 0.8 mm^3
  Tumors per mouse: 0.6 ± 0.2
Week 12
  Percent of mice with tumors: 50.0%
  Tumor volume per mouse: 3.7 ± 1.8 mm^3
  Tumor volume per tumor: 2.4 ± 0.8 mm^3
  Tumors per mouse: 1.5 ± 0.4
Week 15
  Percent of mice with tumors: 66.7%
  Tumor volume per mouse: 9.0 ± 2.4 mm^3
  Tumor volume per tumor: 4.1 ± 0.8 mm^3
  Tumors per mouse: 2.2 ± 0.4
Week 18
  Percent of mice with tumors: 76.7%
  Tumor volume per mouse: 19.0 ± 4.6 mm^3
  Tumor volume per tumor: 5.9 ± 1.3 mm^3
  Tumors per mouse: 3.2 ± 0.6
Week 21
  Percent of mice with tumors: 90.0%
  Tumor volume per mouse: 33.2 ± 9.6 mm^3
  Tumor volume per tumor: 7.4 ± 2.0 mm^3
  Tumors per mouse: 4.5 ± 0.6

B2: STI: trypsin inhibitor (STI; 0.8 mg; T9003, Sigma) in 100 ul liposomes (protein, UniProt P01070 25-205, looked up)
Trypsin inhibitor A: DFVLDNEGNPLENGGTYYILSDITAFGGIRAAPTGNERCPLTVVQSRNELDKGIGTIISSPYRIRFIAEGHPLSLKFDSFAVIMLCVGIPTEWSVVEDLPEGPAVKIGENKDAMDGWFRLERVSDDEFNNYKLVFCPQQAEDDKCGDIGISIDHDDGTRRLVVSKNKPLVVQFQKLDKESL
modifications: in liposomes
notes: 0.8 mg; T9003, Sigma) in 100 ul liposomes
  Effect on tumor growth / tumor progression (tumor volume per mouse), in words: unexpected and significant effect on tumor progression
Week 0
  Percent of mice with tumors: 0
  Tumor volume per mouse: 0 mm^3
  Tumor volume per tumor: 0 mm^3
  Tumors per mouse: 0
Week 6
  Percent of mice with tumors: 16.7%
  Tumor volume per mouse: 0.8 ± 0.6 mm^3
  Tumor volume per tumor: 3.5 ± 1.9 mm^3
  Tumors per mouse: 0.2 ± 0.1
Week 9
  Percent of mice with tumors: 41.4%
  Tumor volume per mouse: 2.6 ± 1.4 mm^3
  Tumor volume per tumor: 3.0 ± 1.4 mm^3
  Tumors per mouse: 0.9 ± 0.2
Week 12
  Percent of mice with tumors: 46.7%
  Tumor volume per mouse: 9.4 ± 3.9 mm^3
  Tumor volume per tumor: 4.8 ± 1.3 mm^3
  Tumors per mouse: 1.9 ± 0.5
Week 15
  Percent of mice with tumors: 55.2%
  Tumor volume per mouse: 17.8 ± 7.9 mm^3
  Tumor volume per tumor: 5.8 ± 2.1 mm^3
  Tumors per mouse: 3.1 ± 0.7
Week 18
  Percent of mice with tumors: 63.3%
  Tumor volume per mouse: 30.7 ± 11.9 mm^3
  Tumor volume per tumor: 7.3 ± 2.2 mm^3
  Tumors per mouse: 4.2 ± 0.9
Week 21
  Percent of mice with tumors: 80.0%
  Tumor volume per mouse: 48.7 ± 23.3 mm^3
  Tumor volume per tumor: 8.6 ± 3.2 mm^3
  Tumors per mouse: 5.6 ± 0.9
